# Legend:
# [1] = tested on: Staphylococcus aureus; assay: Antibacterial activity against methicillin-resistant Staphylococcus aureus clinical isolate after 24 hrs by broth microdilution method; assay type: functional; details: read-out: MIC
# [2] = Toxicity assessed as hemolysis in erythrocytes at 300 mg/L; assay type: cell-based, Erythrocyte; details: human, read-out: Activity
# [3] = tested on: Enterococcus faecium; assay: Antibacterial activity against vancomycin A-resistant Enterococcus faecium clinical isolate in presence of 30% bovine serum after 24 hrs by broth microdilution method; assay type: functional
# [4] = Toxicity assessed as hemolysis in erythrocytes at 1200 mg/L; assay type: cell-based, Erythrocyte; details: human, read-out: Activity
# [5] = tested on: Enterococcus faecalis; assay: Antibacterial activity against vancomycin-resistant Enterococcus faecalis in presence of 30% bovine serum after 24 hrs by broth microdilution method; assay type: functional
# [6] = tested on: Streptococcus pyogenes; assay: Antibacterial activity against Streptococcus pyogenes C203 after 24 hrs by broth microdilution method; assay type: functional; details: C203, 24 h, read-out: MIC
# [7] = tested on: Enterococcus faecium; assay: Antibacterial activity against Enterococcus faecium after 24 hrs by broth microdilution method; assay type: functional; details: read-out: MIC
# [8] = tested on: Enterococcus faecalis; assay: Antibacterial activity against Enterococcus faecalis after 24 hrs by broth microdilution method; assay type: functional; details: read-out: MIC
# [9] = tested on: Candida albicans; assay: Antifungal activity against Candida albicans SKF-2270 after 24 hrs by broth microdilution method; assay type: functional; details: read-out: MIC
# [10] = tested on: Staphylococcus aureus; assay: Antibacterial activity against Staphylococcus aureus Smith after 24 hrs by broth microdilution method; assay type: functional; details: read-out: MIC
# [11] = tested on: Enterococcus faecium; assay: Antibacterial activity against vancomycin A-resistant Enterococcus faecium clinical isolate after 24 hrs by broth microdilution method; assay type: functional; details: read-out: MIC
# [12] = tested on: Staphylococcus aureus; assay: Antibacterial activity against vancomycin-intermediate resistant Staphylococcus aureus clinical isolate in presence of 30% bovine serum after 24 hrs by broth microdilution method; assay type: functional
# [13] = tested on: Staphylococcus aureus; assay: Antibacterial activity against Staphylococcus aureus Smith in presence of 30% bovine serum after 24 hrs by broth microdilution method; assay type: functional
# [14] = tested on: Staphylococcus aureus; assay: Antibacterial activity against vancomycin-intermediate resistant Staphylococcus aureus clinical isolate after 24 hrs by broth microdilution method; assay type: functional
# [15] = tested on: Escherichia coli; assay: Antibacterial activity against Escherichia coli SKF-12140 after 24 hrs by broth microdilution method; assay type: functional; details: read-out: MIC
# [16] = Toxicity assessed as hemolysis in erythrocytes at 600 mg/L; assay type: cell-based, Erythrocyte; details: human, read-out: Activity
# [17] = tested on: Staphylococcus aureus; assay: Antibacterial activity against methicillin-resistant and vancomycin-intermediate resistant Staphylococcus aureus clinical isolate after 24 hrs by broth microdilution method; assay type: functional; details: read-out: MIC
# [18] = Toxicity assessed as hemolysis in erythrocytes at 400 mg/L; assay type: cell-based, Erythrocyte; details: human, read-out: Activity
# [19] = Toxicity assessed as hemolysis in erythrocytes at 200 mg/L; assay type: cell-based, Erythrocyte; details: human, read-out: Activity
# [20] = Toxicity assessed as hemolysis in erythrocytes at 100 mg/L; assay type: cell-based, Erythrocyte; details: human, read-out: Activity
# [21] = Toxicity assessed as hemolysis in erythrocytes at 180 mg/L; assay type: cell-based, Erythrocyte; details: human, erythrocytes; read-out: Activity
# [22] = tested on: Enterococcus faecalis; assay: Antibacterial activity against vancomycin A-resistant Enterococcus faecalis after 24 hrs by broth microdilution method; assay type: functional; details: read-out: MIC
# [23] = Toxicity assessed as hemolysis in erythrocytes at 90 mg/L; assay type: cell-based, Erythrocyte; details: human, erythrocytes; read-out: Activity
SMILES,MIC [1],hemolysis at 300 mg/L [2],MIC [3],hemolysis at 1200 mg/L [4],MIC [5],MIC [6],MIC [7],MIC [8],MIC [9],MIC [10],MIC [11],MIC [12],MIC [13],MIC [14],MIC [15],hemolysis at 600 mg/L [16],MIC [17],hemolysis at 400 mg/L [18],hemolysis at 200 mg/L [19],hemolysis at 100 mg/L [20],further results
Cc1cc(C)cc(CC(=O)N[C@@H](CC(N)=O)C(=O)NC[C@@H]2C(=O)N[C@H](c3ccc(O)cc3)C(=O)N[C@H](CCCN)C(=O)N[C@H](C(C)C)C(=O)N[C@@H](c3ccc(O)cc3)C(=O)N[C@H](c3ccc(O)cc3)C(=O)N[C@@H]([C@@H](C)O)C(=O)N[C@@H](Cc3ccccc3)C(=O)N[C@H](CCCN)C(=O)N[C@@H](c3ccc(O[C@H]4O[C@H](CO)[C@@H](O)[C@H](O)[C@@H]4O[C@H]4O[C@H](CO)[C@@H](O)[C@H](O)[C@@H]4O)cc3)C(=O)N[C@H]([C@@H](C)O)C(=O)N[C@@H](c3ccc(O)cc3)C(=O)NCC(=O)N[C@@H](CC(C)C)C(=O)N[C@H](C)C(=O)N[C@@H](c3ccc(O)c(Cl)c3)C(=O)O[C@@H]2C(N)=O)c1,≤ 0.125 µg/mL,0%,2 µg/mL,87%,1 µg/mL,≤ 0.125 µg/mL,0.25 µg/mL,≤ 0.125 µg/mL,> 128 µg/mL,≤ 0.125 µg/mL,≤ 0.125 µg/mL,4 µg/mL,1 µg/mL,0.5 µg/mL,> 128 µg/mL,18%,1 µg/mL,,,,
CC(C)C[C@@H]1NC(=O)CNC(=O)[C@H](c2ccc(O)cc2)NC(=O)[C@@H]([C@@H](C)O)NC(=O)[C@H](c2ccc(O[C@H]3O[C@H](CO)[C@@H](O)[C@H](O)[C@@H]3O[C@H]3O[C@H](CO)[C@@H](O)[C@H](O)[C@@H]3O)cc2)NC(=O)[C@@H](CCCN)NC(=O)[C@H](Cc2ccccc2)NC(=O)[C@H]([C@@H](C)O)NC(=O)[C@@H](c2ccc(O)cc2)NC(=O)[C@H](c2ccc(O)cc2)NC(=O)[C@@H](C(C)C)NC(=O)[C@@H](CCCN)NC(=O)[C@@H](c2ccc(O)cc2)NC(=O)[C@@H](CNC(=O)[C@H](CC(N)=O)NC(=O)Cc2ccccc2C(F)(F)F)[C@@H](C(N)=O)OC(=O)[C@H](c2ccc(O)c(Cl)c2)NC(=O)[C@@H](C)NC1=O,≤ 0.125 µg/mL,3%,2 µg/mL,51%,0.5 µg/mL,≤ 0.125 µg/mL,0.5 µg/mL,≤ 0.125 µg/mL,> 128 µg/mL,≤ 0.125 µg/mL,0.25 µg/mL,4 µg/mL,1 µg/mL,1 µg/mL,> 128 µg/mL,5%,2 µg/mL,,,,
CC(C)/C=C/C=C\CC(=O)N[C@@H](CC(N)=O)C(=O)NC[C@@H]1C(=O)N[C@H](c2ccc(O)cc2)C(=O)N[C@H](CCCN)C(=O)N[C@H](C(C)C)C(=O)N[C@@H](c2ccc(O)cc2)C(=O)N[C@H](c2ccc(O)cc2)C(=O)N[C@@H]([C@@H](C)O)C(=O)N[C@@H](Cc2ccccc2)C(=O)N[C@H](CCCN)C(=O)N[C@@H](c2ccc(O[C@H]3O[C@H](CO)[C@@H](O)[C@H](O)[C@@H]3O[C@H]3O[C@H](CO)[C@@H](O)[C@H](O)[C@@H]3O)cc2)C(=O)N[C@H]([C@@H](C)O)C(=O)N[C@@H](c2ccc(O)cc2)C(=O)NCC(=O)N[C@@H](CC(C)C)C(=O)N[C@H](C)C(=O)N[C@@H](c2ccc(O)c(Cl)c2)C(=O)O[C@@H]1C(N)=O,≤ 0.125 µg/mL,,1 µg/mL,,0.5 µg/mL,≤ 0.125 µg/mL,0.25 µg/mL,≤ 0.125 µg/mL,> 128 µg/mL,≤ 0.125 µg/mL,≤ 0.125 µg/mL,2 µg/mL,0.5 µg/mL,0.5 µg/mL,> 128 µg/mL,,1 µg/mL,97%,81%,64%,
CC(C)C[C@@H]1NC(=O)CNC(=O)[C@H](c2ccc(O)cc2)NC(=O)[C@@H]([C@@H](C)O)NC(=O)[C@H](c2ccc(O[C@H]3O[C@H](CO)[C@@H](O)[C@H](O)[C@@H]3O[C@H]3O[C@H](CO)[C@@H](O)[C@H](O)[C@@H]3O)cc2)NC(=O)[C@@H](CCCN)NC(=O)[C@H](Cc2ccccc2)NC(=O)[C@H]([C@@H](C)O)NC(=O)[C@@H](c2ccc(O)cc2)NC(=O)[C@H](c2ccc(O)cc2)NC(=O)[C@@H](C(C)C)NC(=O)[C@@H](CCCN)NC(=O)[C@@H](c2ccc(O)cc2)NC(=O)[C@@H](CNC(=O)[C@H](CC(N)=O)NC(=O)Cc2ccccc2)[C@@H](C(N)=O)OC(=O)[C@H](c2ccc(O)c(Cl)c2)NC(=O)[C@@H](C)NC1=O.Cl,1 µg/mL,,1 µg/mL,,2 µg/mL,,2 µg/mL,2 µg/mL,> 128 µg/mL,1 µg/mL,1 µg/mL,2 µg/mL,1 µg/mL,2 µg/mL,> 128 µg/mL,,4 µg/mL,2%,0%,3%,hemolysis at 180 mg/L [21]: 0%; MIC [22]: 2 µg/mL; hemolysis at 90 mg/L [23]: 0%
CCc1ccccc1CC(=O)N[C@@H](CC(N)=O)C(=O)N[C@@H]1C(=O)N[C@H](c2ccc(O)cc2)C(=O)N[C@H](CCCN)C(=O)N[C@H]([C@@H](C)O)C(=O)N[C@@H](c2ccc(O)cc2)C(=O)N[C@H](c2ccc(O)cc2)C(=O)N[C@@H]([C@H](C)O)C(=O)N[C@@H](Cc2ccccc2)C(=O)N[C@H](CCCN)C(=O)N[C@@H](c2ccc(O[C@H]3O[C@H](CO)[C@@H](O)[C@H](O)[C@@H]3O[C@H]3O[C@H](CO)[C@@H](O)[C@H](O)[C@@H]3O)cc2)C(=O)N[C@H]([C@@H](C)O)C(=O)N[C@@H](c2ccc(O)cc2)C(=O)NCC(=O)N[C@@H](CC(C)C)C(=O)N[C@H](C)C(=O)N[C@@H](c2ccc(O)c(Cl)c2)C(=O)O[C@@H]1C(N)=O,,1%,,76%,,,,,,,,,,,,1%,,,,,
CCCCCCCC(=O)N[C@@H](CC(N)=O)C(=O)NC[C@@H]1C(=O)N[C@H](c2ccc(O)cc2)C(=O)N[C@H](CCCN)C(=O)N[C@H](C(C)C)C(=O)N[C@@H](c2ccc(O)cc2)C(=O)N[C@H](c2ccc(O)cc2)C(=O)N[C@@H]([C@@H](C)O)C(=O)N[C@@H](Cc2ccccc2)C(=O)N[C@H](CCCN)C(=O)N[C@@H](c2ccc(O[C@H]3O[C@H](CO)[C@@H](O)[C@H](O)[C@@H]3O[C@H]3O[C@H](CO)[C@@H](O)[C@H](O)[C@@H]3O)cc2)C(=O)N[C@H]([C@@H](C)O)C(=O)N[C@@H](c2ccc(O)cc2)C(=O)NCC(=O)N[C@@H](CC(C)C)C(=O)N[C@H](C)C(=O)N[C@@H](c2ccc(O)c(Cl)c2)C(=O)O[C@@H]1C(N)=O.Cl,0.25 µg/mL,,1 µg/mL,,1 µg/mL,0.06 µg/mL,0.125 µg/mL,0.125 µg/mL,> 128 µg/mL,0.125 µg/mL,< 0.06 µg/mL,2 µg/mL,1 µg/mL,1 µg/mL,> 128 µg/mL,,2 µg/mL,59%,5%,0%,hemolysis at 180 mg/L [21]: 16%; MIC [22]: 0.125 µg/mL; hemolysis at 90 mg/L [23]: 0%

# Reference: ChEMBL document CHEMBL1145390, “Synthesis and preliminary biological characterization of new semisynthetic derivatives of ramoplanin” (J Med Chem, 2007)
